Assay results reported in paper PMC10467108, “Of Seven New K^+ Channel Inhibitor Peptides of Centruroides bonito, α-KTx 2.24 Has a Picomolar Affinity for Kv1.2” (Toxins, 2023).
“Also recorded” adds a separate entry of the source. Like-named read-outs stand apart in the source and are kept apart here. Where a SMILES comes first, the peptide text is derived from it. Bridges are numbered along the chain shown (N, C = ends).

Tests used:
Format in all cases: cell-based
hKv1.1 = target: T1, hKv1.1 (Homo sapiens, UniProt Q09470); test: Whole-cell patch-clamp of Kv1.1 currents in transiently transfected CHO cells; conditions: for Kd: this study, screened at 100 nM, read-out: Kd Values Kv1.1 (symbol)
T1 construct: host or cells: CHO cells, transient transfection (Lipofectamine 2000)
T1 sequence (Q09470 whole entry): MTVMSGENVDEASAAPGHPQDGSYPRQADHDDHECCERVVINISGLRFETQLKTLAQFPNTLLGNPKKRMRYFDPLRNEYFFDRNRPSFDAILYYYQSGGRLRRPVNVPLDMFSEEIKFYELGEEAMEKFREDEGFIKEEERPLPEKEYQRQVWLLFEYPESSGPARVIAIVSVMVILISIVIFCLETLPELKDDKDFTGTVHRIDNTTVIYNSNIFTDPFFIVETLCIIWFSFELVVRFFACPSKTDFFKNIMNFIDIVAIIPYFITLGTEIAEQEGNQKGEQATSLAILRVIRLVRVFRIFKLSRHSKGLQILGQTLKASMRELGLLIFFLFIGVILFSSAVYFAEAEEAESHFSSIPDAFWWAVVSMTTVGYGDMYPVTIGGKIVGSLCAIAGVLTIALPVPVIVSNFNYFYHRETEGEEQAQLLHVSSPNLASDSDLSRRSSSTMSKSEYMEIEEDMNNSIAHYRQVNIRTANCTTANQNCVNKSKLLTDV
Description: (§1) Macroscopic Kv1.1 and Kv1.2 currents were measured in transiently transfected CHO cells. For Kv1.3 current recording, human T lymphocytes were activated by Phytohemagglutinin A (PHA) to increase Kv1.3 channel expression, and micro-pipettes were filled with Ca^2+-free solution to prevent KCa3.1 channel activation. K^+ currents were evoked by applying 15-ms-long depolarization pulses to +50 mV from a holding potential of −120 mV except for Kv1.2, as it has highly variable activation kinetics; therefore, 15–500 ms-long pulses were applied to maximize the open probability of Kv1.2 channel. CboK peptide toxins were dissolved in a freshly prepared extracellular solution and applied to the whole-cell patch-clamped cells using a micro perfusion system at 200 μL/min flow rate.
(§2) CHO cells were transiently transfected by using Lipofectamine 2000 kit (Invitrogen, Carlsbad, CA, USA), as per the manufacturer’s protocol with vector pCMV6-AC-GFP (cat# RG211000 and RC222200; OriGene Technologies, Rockville, MD, USA) encoding hKv1.1 (hKCNA1 gene) or hKv1.2 (hKCNA2 gene) ion channels. Cells were grown under standard conditions in an incubator at 37 °C and 5% CO2 for 24 h. GFP-positive transfected cells were identified by utilizing a Nikon TMS fluorescence microscope (Nikon, Tokyo, Japan) using bandpass filters of 455–495 nm and 515–555 nm for excitation and emission, respectively.
(§3) The patch-clamp technique was used for measuring whole-cell currents in voltage-clamped mode using standard protocols. Electrophysiological recordings were acquired by using Multiclamp 700B amplifier connected to a personnel computer with an Axon Digidata1440 digitizer (Molecular Devices, Sunnyvale, CA, USA). Pipettes were pulled from GC150F-15 borosilicate capillaries (Harvard Apparatus, Kent, UK) having 3−5 MΩ tip resistance in the bath solution. All current recordings were carried out at room temperature (20−25 °C) and only those currents were recorded and subjected to analyses when the leak current at holding potential was <5% of peak current at the test potential. Current traces were lowpass-filtered by utilizing the built-in analog four-pole Bessel filters of the amplifiers and were sampled at 20 kHz which is at least twice the filter cut-off frequency. A gravity-driven perfusion system was used to perfuse the cells with control and test solutions and excess fluid was removed continuously through vacuum suction. The extracellular solution (bath solution) contained 145 mM NaCl, 5.5 mM glucose, 5 mM KCl, 2.5 mM CaCl2, 1 mM MgCl2, and 10 mM HEPES, having pH of 7.35 and an osmolarity between 302 and 308 mOsM/L. Toxins were dissolved in bath solution at different molar concentrations and supplemented with 0.1 mg/mL of bovine serum albumin BSA (Sigma-Aldrich, Budapest, Hungary). The intracellular solution (pipette filling) was comprised of 140 mM KF, 2 mM MgCl2, 1 mM CaCl2, 10 mM HEPES, and 11 mM EGTA, with a pH of 7.22 and an osmolarity of ~295 mOsM/L.
(§4) Generally, to evoke the Kv1.xcurrents, 15-ms-long depolarization pulses to +50 mV from a holding potential of −120 mV were applied, and the current traces were recorded after every 15 s. However, in the case of Kv1.2, due to its variable activation kinetics, the duration of the depolarization pulse was set between 15 and 500 ms to attain the saturated peak current.

hKv1.2 = target: T2, hKv1.2 (Homo sapiens, UniProt P16389); test: Whole-cell patch-clamp of Kv1.2 currents in transiently transfected CHO cells
T2 construct: GFP (C); host or cells: CHO cells, transient transfection (Lipofectamine 2000)
T2 sequence (P16389 whole entry): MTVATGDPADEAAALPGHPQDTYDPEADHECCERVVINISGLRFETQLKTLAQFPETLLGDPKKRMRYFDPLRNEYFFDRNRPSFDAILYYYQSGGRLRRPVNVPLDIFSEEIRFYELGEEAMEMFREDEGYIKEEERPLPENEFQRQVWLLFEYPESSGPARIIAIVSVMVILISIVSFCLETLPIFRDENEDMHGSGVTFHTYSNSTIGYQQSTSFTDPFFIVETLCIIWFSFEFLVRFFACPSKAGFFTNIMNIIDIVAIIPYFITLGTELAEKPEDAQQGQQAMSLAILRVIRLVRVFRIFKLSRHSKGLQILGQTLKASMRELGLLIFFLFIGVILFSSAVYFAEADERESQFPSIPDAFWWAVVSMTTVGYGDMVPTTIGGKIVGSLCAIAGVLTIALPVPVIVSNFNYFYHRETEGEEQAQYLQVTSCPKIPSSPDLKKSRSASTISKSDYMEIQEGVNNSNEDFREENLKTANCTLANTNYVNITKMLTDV
Description: as §1, §2, §3, §4

Kv1.3 = target: T3, Kv1.3 (Homo sapiens, UniProt P22001); test: Whole-cell patch-clamp of Kv1.3 currents in PHA-activated human T lymphocytes; conditions: for Hill coefficient H, Kv1.3 block: Hill fit of isochronal RCF (4 ms)
T3 construct: endogenous in cells
T3 sequence (P22001 whole entry): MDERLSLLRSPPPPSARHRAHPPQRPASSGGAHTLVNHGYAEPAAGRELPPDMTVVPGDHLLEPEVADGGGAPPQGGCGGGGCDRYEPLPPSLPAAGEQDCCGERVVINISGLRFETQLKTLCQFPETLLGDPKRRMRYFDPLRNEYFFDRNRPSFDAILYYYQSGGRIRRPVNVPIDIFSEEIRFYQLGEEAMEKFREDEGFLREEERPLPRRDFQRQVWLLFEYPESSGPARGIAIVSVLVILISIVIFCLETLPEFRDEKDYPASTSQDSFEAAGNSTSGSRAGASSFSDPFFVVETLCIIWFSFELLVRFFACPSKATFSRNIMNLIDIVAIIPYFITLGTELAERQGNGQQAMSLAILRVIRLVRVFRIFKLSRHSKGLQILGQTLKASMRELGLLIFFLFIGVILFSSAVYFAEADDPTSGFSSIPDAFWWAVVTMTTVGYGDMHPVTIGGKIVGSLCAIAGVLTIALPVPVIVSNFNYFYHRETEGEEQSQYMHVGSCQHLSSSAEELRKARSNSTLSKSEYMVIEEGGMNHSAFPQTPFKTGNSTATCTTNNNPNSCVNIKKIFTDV
Description: as §1
Isochronal RCF data points obtained this way (isochronal RCF = I4ms/I4ms,0 where I4ms,0 and I4ms are the currents at 4 ms time point in the absence and presence of CboK peptides, respectively) at different toxin concentrations were fitted with the Hill equation to obtain concentration–response curves as shown in Figure 6H.
Human peripheral venous blood was acquired from anonymous healthy volunteers from the blood bank. Blood samples were collected by having approval from the Ethical Committee of the Hungarian Medical Research Council (36255-6/2017/EKU). PBMCs were separated by Histopaque 1077 (Sigma-Aldrich, Budapest, Hungary) separation technique, and isolated cells, at the density of 5 × 10^5 cells, were cultured in RPMI 1640 media (Gibco, Grand Island, NY, USA) supplemented with 10% FBS (Sigma-Aldrich, Budapest, Hungary), 2 mM L-glutamine, […], and […] penicillin in a humidified incubator at 37 °C and 5% CO2 for 3–6 days. A measure of 2, 5, or 10 μg/mL of Phytohemagglutinin A (PHA) (Sigma-Aldrich, Budapest, Hungary) was added in cultured cells to activate the PBMCs and upregulate the Kv1.3 expression.
as §3, with “suction.” for “suction. The extracellular solution (bath solution) contained 145 mM NaCl, 5.5 mM glucose, 5 mM KCl, 2.5 mM CaCl2, 1 mM MgCl2, and 10 mM HEPES, having pH of 7.35 and an osmolarity between 302 and 308 mOsM/L. Toxins were dissolved in bath solution at different molar concentrations and supplemented with 0.1 mg/mL of bovine serum albumin BSA (Sigma-Aldrich, Budapest, Hungary). The intracellular solution (pipette filling) was comprised of 140 mM KF, 2 mM MgCl2, 1 mM CaCl2, 10 mM HEPES, and 11 mM EGTA, with a pH of 7.22 and an osmolarity of ~295 mOsM/L.”

[1] = Hill fit of RCF vs toxin concentration, cumulative application, equilibrium block, pulses to +50 mV from -120 mV, n ≥ 3, read-out: Kd for Kv1.2
[2] = Hill fit of RCF vs toxin concentration, n ≥ 3
[3] = Hill fit of isochronal RCF (current at 4 ms), 15-ms pulses to +50 mV from -120 mV, n ≥ 3, read-out: Kd for Kv1.3

| SMILES | effect on Kv1.1 currents (hKv1.1; 100 nM toxin) | Kd (hKv1.1) | effect on Kv1.2 currents (hKv1.2; 100 nM toxin) | Kd (hKv1.2; this study, CboK1 tested at 100 nM, read-out: Kd Values Kv1.2 (symbol)) | effect on Kv1.3 currents (Kv1.3; 100 nM toxin) | inhibition of Kv1.3 currents (Kv1.3; 100 nM toxin, equilibrium block, screening summary (Figure 4F), n ≥ 3) | Kd (Kv1.3; this study, screened at 100 nM, read-out: Kd Values Kv1.3 (symbol)) | inhibition of Kv1.1 currents (hKv1.1; 100 nM toxin, equilibrium block, screening summary (Figure 4D), n ≥ 3) | Kd (hKv1.2; [1]) | Hill coefficient H, Kv1.2 block (hKv1.2; [2]) | Hill coefficient H, Kv1.3 block (Kv1.3; n ≥ 3) | Kd (Kv1.3; [3]) | inhibition of Kv1.2 current, representative traces (hKv1.2; 1 nM toxin, steady-state block, representative cell (Figure 4B, 5A)) | reversibility of Kv1.2 block (hKv1.2; 1 nM toxin, wash with toxin-free control solution) | Kd (Kv1.3; approximate, concentration-response data not obtained for CboK5, read-out: Kd for Kv1.3 (CboK5)) |
| --- | --- | --- | --- | --- | --- | --- | --- | --- | --- | --- | --- | --- | --- | --- | --- |
| CC[C@H](C)[C@@H]1NC(=O)[C@@H]2CSSC[C@H](NC(=O)[C@H](C)NC(=O)[C@@H](NC(=O)[C@@H](N)CC(N)=O)C(C)C)C(=O)N[C@@H](C(C)C)C(=O)N[C@@H](Cc3c[nH]cn3)C(=O)N[C@@H](CCCNC(=N)N)C(=O)N[C@@H]([C@@H](C)O)C(=O)N[C@H]3CSSC[C@H](NC(=O)[C@H](CCCCN)NC(=O)[C@H](CCCNC(=N)N)NC(=O)[C@H](CC(N)=O)NC1=O)C(=O)N[C@@H](CC(N)=O)C(=O)N[C@H](C(=O)N[C@@H](Cc1ccc(O)cc1)C(=O)N1CCC[C@H]1C(=O)N[C@@H](Cc1c[nH]cn1)C(=O)O)CSSC[C@H](NC(=O)[C@H](CC(N)=O)NC(=O)[C@H](CO)NC(=O)[C@H](CC(=O)O)NC3=O)C(=O)N[C@@H](CCCCN)C(=O)N[C@@H](CCCNC(=N)N)C(=O)N[C@@H](CC(N)=O)C(=O)NCC(=O)N[C@@H](Cc1ccc(O)cc1)C(=O)N[C@@H](CCCCN)C(=O)N[C@@H](CO)C(=O)NCC(=O)N[C@@H](CCCCN)C(=O)N2 [CboK1] (H-NVACVHRTCDSNCKRNGYKSGKCINRKCNCYPH-OH; disulfide 4-23, 9-28, 13-30) | did not show any effect | > 100 nM | totally insensitive; also recorded: did not show any effect | > 100 nM | did not show any effect | less than 4% | > 100 nM | – | – | – | – | – | – | – | – |
| CC[C@H](C)[C@H](NC(=O)[C@H](Cc1ccccc1)NC(=O)[C@@H](N)[C@@H](C)O)C(=O)N[C@@H](CC(N)=O)C(=O)N[C@H](C(=O)N[C@@H](CCCCN)C(=O)N[C@H]1CSSC[C@@H]2NC(=O)[C@H](CCCCN)NC(=O)[C@H](CCC(=O)O)NC(=O)CNC(=O)[C@H](C)NC(=O)[C@H](Cc3c[nH]cn3)NC(=O)[C@@H]3CCCN3C(=O)CNC(=O)[C@H](Cc3ccc(O)cc3)NC(=O)[C@H](CC(C)C)NC(=O)[C@H](CC(=O)O)NC(=O)[C@H](CCCCN)NC(=O)[C@@H]3CSSC[C@@H](C(=O)N[C@@H](Cc4ccc(O)cc4)C(=O)N[C@@H](CCCCN)C(=O)N4CCC[C@H]4C(=O)O)NC(=O)[C@H](CCCCN)NC(=O)[C@H](CSSC[C@H](NC(=O)[C@H](CCC(N)=O)NC(=O)[C@H](CCCCN)NC(=O)[C@@H]4CCCN4C(=O)[C@H](CO)NC(=O)[C@H]([C@@H](C)O)NC1=O)C(=O)N[C@@H](CC(C)C)C(=O)N[C@@H](CCCCN)C(=O)N1CCC[C@H]1C(=O)N3)NC(=O)[C@H](CCCCN)NC(=O)CNC(=O)[C@H](CC(N)=O)NC(=O)[C@H](CCSC)NC2=O)C(C)C [CboK4] (H-TFINVKCTSPKQCLKPCKDLYGPHAGEKCMNGKCKCYKP-OH; disulfide 7-29, 13-34, 17-36 (inferred); N-terminus and C-terminus assumed) | – | – | – | – | – | – | – | less than 10% | 0.125 nM | 1.0 | 0.94 | 21.7 nM | – | – | – |
| CC[C@H](C)[C@H](N)C(=O)N[C@@H](Cc1ccccc1)C(=O)N[C@H](C(=O)N[C@@H](CC(N)=O)C(=O)N[C@H](C(=O)N[C@@H](CCCCN)C(=O)N[C@H]1CSSC[C@@H]2NC(=O)[C@H](CCCCN)NC(=O)CNC(=O)CNC(=O)[C@H](C)NC(=O)[C@H](Cc3c[nH]cn3)NC(=O)[C@H](CCC(N)=O)NC(=O)CNC(=O)[C@H](Cc3ccccc3)NC(=O)[C@H](CCCNC(=N)N)NC(=O)[C@H](CC(=O)O)NC(=O)[C@H](CCCCN)NC(=O)[C@@H]3CSSC[C@@H](C(=O)N[C@@H](Cc4ccc(O)cc4)C(=O)N4CCC[C@H]4C(=O)O)NC(=O)[C@H](CCCCN)NC(=O)[C@H](CSSC[C@H](NC(=O)[C@H](CCC(N)=O)NC(=O)[C@H](CCC(N)=O)NC(=O)[C@@H]4CCCN4C(=O)[C@H](CC(C)C)NC(=O)[C@H](CO)NC1=O)C(=O)N[C@@H](CC(C)C)C(=O)N[C@@H](CCCNC(=N)N)C(=O)N1CCC[C@H]1C(=O)N3)NC(=O)[C@H](CCCCN)NC(=O)CNC(=O)[C@H](CC(N)=O)NC(=O)[C@H]([C@@H](C)CC)NC2=O)C(C)C)[C@@H](C)CC [CboK5] (H-IFINVKCSLPQQCLRPCKDRFGQHAGGKCINGKCKCYP-OH; disulfide 7-29, 13-34, 17-36 (inferred); N-terminus and C-terminus assumed) | did not inhibit | > 100 nM | – | – | – | – | – | – | 0.376 nM | 1.2 | – | – | ~ 75% | completely reversed | 126 nM |
| CC[C@H](C)[C@@H]1NC(=O)[C@@H]2CSSC[C@H](NC(=O)[C@H](CCCCN)NC(=O)[C@@H](NC(=O)[C@H](CC(N)=O)NC(=O)[C@@H](NC(=O)[C@@H](NC(=O)[C@@H](N)[C@@H](C)O)[C@@H](C)O)[C@@H](C)CC)C(C)C)C(=O)N[C@@H](CO)C(=O)N[C@@H](CC(C)C)C(=O)N3CCC[C@H]3C(=O)N[C@@H](CCC(N)=O)C(=O)N[C@@H](CCC(N)=O)C(=O)N[C@H]3CSSC[C@H](NC(=O)[C@H](CCCCN)NC(=O)CNC(=O)[C@H](CC(N)=O)NC1=O)C(=O)N[C@@H](CCCCN)C(=O)N[C@H](C(=O)N[C@@H](Cc1ccc(O)cc1)C(=O)N1CCC[C@H]1C(=O)O)CSSC[C@H](NC(=O)[C@@H]1CCCN1C(=O)[C@H](CCCNC(=N)N)NC(=O)[C@H](CC(C)C)NC3=O)C(=O)N[C@@H](CCCCN)C(=O)N[C@@H](CC(=O)O)C(=O)N[C@@H](CCCNC(=N)N)C(=O)N[C@@H](Cc1ccccc1)C(=O)NCC(=O)N[C@@H](CCC(N)=O)C(=O)N[C@@H](Cc1c[nH]cn1)C(=O)N[C@@H](C)C(=O)NCC(=O)NCC(=O)N[C@@H](CCCCN)C(=O)N2 [CboK6] (H-TTINVKCSLPQQCLRPCKDRFGQHAGGKCINGKCKCYP-OH; disulfide 7-29, 13-34, 17-36 (inferred); N-terminus and C-terminus assumed) | does not block | > 100 nM | – | – | – | – | – | – | 0.585 nM | 1.3 | 0.77 | 160 nM | – | – | – |
